Experimental findings from ChEMBL document CHEMBL3608220, “Isolation and structure elucidation of bioactive compounds from the roots of the Tunisian Ononis angustissima L” (Bioorg Med Chem Lett, 2015) are described below.

In brackets after ≈: the same amount, converted by molar mass. Activity calls are given as the source filed them. The calls are words filed in the database; no cut-off is given here.

Data set [1] is described as follows: Antioxidant activity assessed as DPPH radical scavenging activity after 30 mins. Type of data set: physicochemical. On the technique in general: DPPH is a stable violet radical that fades when it is reduced.
Data set [2] in a line: Antioxidant activity assessed as ABTS radical scavenging activity after 6 mins. The format is physicochemical.
Data set [3] is described as follows: Antioxidant activity assessed as reduction of Fe3+ to Fe2+ after 20 mins. Type of data set: physicochemical.
The nature of data set [4]: Cytotoxicity against rat PC12 cells assessed as cell viability at 30 uM after 24 hrs by MTT assay. Type of data set: cell-based. The conditions noted are these: pc-12, 24 h.
A short description of data set [5]: Cytotoxicity against rat PC12 cells assessed as cell viability at 75 uM after 24 hrs by MTT assay relative to control. The format is cell-based. The conditions noted are these: pc-12, 24 h. For orientation: Tetrazolium dyes change colour on reduction, which living cells bring about.
Data set [6] can be described thus: Cytotoxicity against rat PC12 cells assessed as cell viability at 150 uM after 24 hrs by MTT assay relative to control. The conditions noted are these: pc-12, 24 h. Type of data set: cell-based.
The subject of data set [7] is PC-12. Description: (§1) Neuroprotective activity against amyloid beta (25 to 35)-induced toxicity in rat PC12 cells assessed as increase in cell viability at 30 uM after 24 hrs by MTT assay relative to control. The format is functional.
Data set [8] can be described thus: as §1. Type of data set: functional, PC-12.
Data set [9] can be described thus: (§2) Neuroprotective activity against amyloid beta (25 to 35)-induced toxicity in rat PC12 cells assessed as increase in cell viability at 75 uM after 24 hrs by MTT assay relative to control. The format is functional, PC-12.
For data set [10], the system named is PC-12. Description: Neuroprotective activity against amyloid beta (25 to 35)-induced toxicity in rat PC12 cells assessed as increase in cell viability after 24 hrs by MTT assay. The format is functional, cell-based.
For data set [11], the system named is PC-12. The description is as §2. The format is functional.

On to `O=c1c(O)c(-c2ccc(O)c(O)c2)oc2cc(O)cc(O)c12` [QUERCETIN], for which the IC50 in data set [1] was 4.89 µg/mL (≈ 16.2 µM); in data set [2], 6.94 µg/mL (≈ 23 µM).
Consider `COc1ccc(-c2coc3cc(O[C@@H]4O[C@H](CO)[C@@H](O)[C@H](O)[C@H]4O)ccc3c2=O)cc1` [ONONIN], for which the IC50 came out at 34.17 µg/mL (≈ 79.4 µM) in data set [1], 71.3 µg/mL (≈ 166 µM) in data set [2] and 57.21 µg/mL (≈ 133 µM) in [3].
As to `OC[C@H]1O[C@@H](Oc2ccc3c(c2)OCC2c4cc5c(cc4OC32)OCO5)[C@H](O)[C@@H](O)[C@@H]1O` (some centres undefined), the IC50 in data set [1] was determined as 28.06 µg/mL (≈ 62.9 µM); in [2] it was 63.21 µg/mL (≈ 142 µM); in data set [3], 70.37 µg/mL (≈ 158 µM). The Activity entry in [4] is recorded as “Non-toxic”; in data set [5], “Toxic”; in data set [6], “Toxic”. Moreover, the result in the data set on PC-12 [7] was inactive.
Regarding `O=C(O)CC(=O)OC[C@H]1O[C@@H](Oc2ccc3c(c2)OCC2c4cc5c(cc4OC32)OCO5)[C@H](O)[C@@H](O)[C@@H]1O` (some centres undefined), the IC50 in data set [1] worked out at 25.93 µg/mL (≈ 48.7 µM); in data set [2] it was 60.64 µg/mL (≈ 114 µM); in [3], 64.31 µg/mL (≈ 121 µM).
On to `COc1cc(O[C@@H]2O[C@H](CO)[C@@H](O)[C@H](O)[C@H]2O)c(O)cc1-c1coc2cc(O)ccc2c1=O`, for which, in [1], the half-maximal inhibitory concentration (IC50) amounted to 20.45 µg/mL (≈ 44.2 µM).
For `Cc1cc(C(C)(C)C)c(O)c(C(C)(C)C)c1` [BUTYLATED HYDROXYTOLUENE], the values for the IC50 in [1] and in data set [3] were 9.23 µg/mL (≈ 41.9 µM) and 41.64 µg/mL (≈ 189 µM), respectively.
For `COc1ccc(C2=CC(=O)OC2Cc2ccc(O)cc2)c(O[C@@H]2O[C@H](CO)[C@@H](O)[C@H](O)[C@H]2O)c1` (some centres undefined), the IC50 in [1] came out at 25.67 µg/mL (≈ 54.1 µM); in [2], 61.39 µg/mL (≈ 129 µM); in [3], 46.93 µg/mL (≈ 98.9 µM). Moreover, the Activity result in data set [4] was “Non-toxic”; in data set [5], “Toxic”; in [6] it was “Toxic”. Also, the result in the data set on PC-12 [7] was inactive.
With `COc1ccc(-c2coc3cc(O)ccc3c2=O)cc1` [FORMONONETIN], the results for the IC50 in data set [1], in [2] and in [3] were 43.51 µg/mL (≈ 162 µM), 77.42 µg/mL (≈ 289 µM) and 62.57 µg/mL (≈ 233 µM), respectively.
As for `Oc1ccc2c(c1)OC[C@H]1c3cc4c(cc3O[C@@H]21)OCO4` [MAACKIAIN], the IC50 in [1] was 24.48 µg/mL (≈ 86.1 µM). The Activity result was “Non-toxic” in [4]; “Non-toxic” in [5]; “Toxic” in [6]; 5% in data set [8]; 15% in data set [9]; “Dose-dependent effect” with PC-12 [10].
In the case of `COc1ccc2c(c1)O[C@H]1c3ccc(O)cc3OC[C@@H]21`, the values for the IC50 in data set [1], in [2] and in data set [3] were 45.91 µg/mL (≈ 170 µM), 86.29 µg/mL (≈ 319 µM) and 82.37 µg/mL (≈ 305 µM), respectively. The Activity entry in data set [4] is “Non-toxic”; in [5], “Non-toxic”; in data set [6], “Toxic”; in data set [8] it was 18%; in data set [9] it was 30%; in the data set with PC-12 [10] it was “Dose-dependent effect”.
As to `O=C1C=C(c2ccc(O)cc2O)C(Cc2ccc(O)cc2)O1` (centres undefined), the IC50 was 19.53 µg/mL (≈ 65.5 µM) in data set [1], 28.29 µg/mL (≈ 94.8 µM) in [2] and 38.52 µg/mL (≈ 129 µM) in [3]. Besides, the Activity result in data set [4] is on record as “Non-toxic”; in data set [5] it was “Toxic”; in [6], “Toxic”. Moreover, the result in the data set on PC-12 [7] was inactive.
With `O=C1C=C(c2ccc(O)cc2O[C@@H]2O[C@H](CO)[C@@H](O)[C@H](O)[C@H]2O)C(Cc2ccc(O)cc2)O1` (some centres undefined), the IC50 is 21.43 µg/mL (≈ 46.5 µM) in data set [1], 46.72 µg/mL (≈ 101 µM) in [2] and 39.81 µg/mL (≈ 86.5 µM) in [3]. Moreover, the Activity result in [4] is recorded as “Non-toxic”; in data set [5] it was “Non-toxic”; in data set [6], “Toxic”. Besides, the result in the data set on PC-12 [7] and with PC-12 [11] was inactive.

By IC50 is commonly meant the concentration at which inhibition is half-maximal.
